Test results from US20100216994A1, “USE OF NOVEL COMPOUND HAVING AFFINITY FOR AMYLOID, AND PROCESS FOR PRODUCTION OF THE SAME” (NIHON MEDI-PHYSICS CO., LTD., priority 2007, published 2010).
Read-outs that look alike come from different tables or passages of the source.

How the values were obtained:
[1] = target: aggregated Aβ (amyloid) from Aβ1-42 (Homo sapiens, UniProt P05067)
Text: Affinity of the present compounds with amyloid was examined by the following in vitro binding tests.

[2] = [^125I]-labeled compounds, normal mice, brain; cited from earlier work
[3] = Transferability into brain and clearance (radioactive accumulation in brain after intravenous injection); details: rats
Method: Using [^123I]-2-(4′-iodophenyl)-6-methoxyimidazo[1,2-a]pyridine and [^123I]-2-(4′-fluorophenyl)-6-iodoimidazo[1,2-a]pyridine, a time course change of radioactive accumulation in brain of male Wistar rats (7-week old) was measured.
The rats were sacrificed by bleeding from abdominal artery, and brains were removed and subjected to measurement of mass of brains (hereinafter referred to as A in this Example) and further subjected to measurement of radioactivity with a single channel analyzer (detector type: SP-20 manufactured by OHYO KOKEN KOGYO Co., Ltd.) 2, 5, 30 and 60 minutes after the injection. Also, radioactivity (hereinafter referred to as B in this Example) of the rest of the whole body was measured in the same manner as above.
The same procedures as above was conducted and subjected to the same procedures as above to calculate radioactive accumulation per unit weight of a brain (% ID/g) at the respective time points were calculated.
Three animals were used for Example 15, Example 16 and Comparative Example 2 at the respective time points.

[4] = target: T1, intracerebral amyloid (aggregated Aβ1-42) (Homo sapiens, UniProt P05067); test: Confirmation of imaging of amyloid in brain (autoradiogram of brain slice, amyloid injected into amygdaloid nucleus); assay type: in vivo, male Wistar rat; details: rat, tail vein injection, brain removed 60 minutes after injection
T1 construct: Aβ1-42 (Wako) was dissolved in phosphate buffer (pH 7.4); purchased Wako
Method: (§1) The following experiment was carried out in order to examine whether amyloid in brain can be imaged by the compound of the present invention.
(§2) (1) Aβ1-42 (Wako) was dissolved in phosphate buffer (pH 7.4) and shaken at 37° C. for 72 hours, to obtain a 1 mg/mL suspension of aggregated Aβ (hereinafter referred to as amyloid suspension in this Example).
(§3) (2) Under thiopental anesthesia, […] of the amyloid suspension was injected into an amygdaloid nucleus on one side of a male Wistar rat (7-week old). As a control, 2.5 μL of a phosphate buffered physiological saline solution (pH 7.4) was injected into an amygdaloid nucleus on the other side of the rat. The rats were examined 1 day after the injection of the amyloid suspension and the phosphate buffered physiological saline solution (pH 7.4).
(§4) This sample solution was injected under thiopental anesthesia into the rat through the tail vein (dosage: 0.5 mL, dosed radioactivity: 16 MBq equivalent).
(§5) (4) Brain was removed 60 minutes after the injection to prepare a brain slice of 10 μm in thickness with a microtome (type: CM3050S, manufactured by LEICA). The brain slice was exposed to an imaging plate for 20 hours, and then image analysis was carried out by use of a Bio-imaging Analyzer (type: BAS-2500; manufactured by FUJIFILM Corporation).

[5] = test system: intracerebral amyloid (aggregated Aβ1-42); test: as above; assay type: in vivo, male Wistar rat; details: rat, tail vein injection, brain removed 60 minutes after injection
Method: as §1, §2, §3, §4, §5

[6] = SD rat; for radioactive distribution per unit weight, Adrenal gland, Average / radioactive distribution per unit weight, Blood, Average / radioactive distribution per unit weight, Bone, Average / radioactive distribution per unit weight, Brain, Average / radioactive distribution per unit weight, Heart, Average / radioactive distribution per unit weight, Kidney, Average / radioactive distribution per unit weight, Large intestine, Average / radioactive distribution per unit weight, Liver, Average / radioactive distribution per unit weight, Lung, Average / radioactive distribution per unit weight, Marrow, Average / radioactive distribution per unit weight, Muscle, Average / radioactive distribution per unit weight, Pancreas, Average / radioactive distribution per unit weight, Small intestine, Average / radioactive distribution per unit weight, Spleen, Average / radioactive distribution per unit weight, Stomach, Average: tail vein
Method: 0.2 mL each of the prepared sample solution was administered under non-thiopental anesthesia into the tail vein of the above rat. The rats were sacrificed by bleeding from abdominal artery, and each organ shown in Table 4 was removed 5, 30, 60 and 180 minutes after the administration. Each removed organ was subjected to measurement of mass and radioactivity with the same method as in Example 15. Also, radioactivity of the whole body of the rat after removal of the organs (hereinafter, refers to rest of the whole body) was measured. Using these measurement results, radioactive distribution per unit weight of each organ (% ID/g) at the respective time points was calculated in accordance with the following formula (4).
Three animals were used for the experiment at the respective time points.
R^T: Radioactivity of target organ (cpm) RS: Sum of radioactivity of all the organs (cpm)
R^R: Radioactivity of the rest of the whole body (cpm)
M^T: Mass of target organ (g)

[7] = Partition coefficient based on the octanol extraction method (logPoctanol); details: octanol / 10 mmol/L phosphate buffer (pH 7.4)
Method: 10 μL each of the prepared sample solution was respectively added to 2 mL of octanol, further, 2 mL of 10 mmol/L phosphate buffer (pH 7.4) was added, and stirred for 30 seconds. After the mixture was centrifuged with a low-speed centrifuge (2000 rpm×60 min.), the octanol layer and the water layer were sampled each in an amount of 1 mL, and subjected to measurement of radioactivity count with an autowell gamma system (Type: ARC-301B, manufactured by Aloka). Using the obtained radioactivity count, logPoctanol was calculated in accordance with the equation (2).

Chain of aggregated Aβ (amyloid) from Aβ1-42 (P05067 672-713): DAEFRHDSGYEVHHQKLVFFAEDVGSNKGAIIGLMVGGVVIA
T1 sequence (P05067 672-713): as above

## COc1ccc2nc(-c3ccc([125I])cc3)cn2c1 [[^125I]-2 (4′-iodophenyl)-6-methoxyimidazo[1,2-a]pyridine]
[1]; amyloid 25, 62.5, 250, 625 and 1000 nmol/L, 22° C., 3 hours, non-specific count B subtracted
  radioactive count specifically attached to amyloid (A−B) versus concentration of amyloid: increase proportionally to the concentration of amyloid
[1]; conclusion from in vitro binding test
  capability of binding to amyloid: highly capable of binding to amyloid

## CN(C)c1ccc(-c2nc3ccc(I)cc3o2)cc1 [IBOX, 6-iodo-2-[4′-(N,N-dimethylamino)phenyl]benzoxazole]
[2]
  clearance from normal tissues: insufficient in clearance from normal tissues

## CN(C)c1ccc(-c2nc3ccc(I)cc3s2)cc1 [TZDM, 6-iodo-2-[4′-(N,N-dimethylamino)phenyl]benzothiazole]
[2]
  clearance from normal tissues: insufficient in clearance from normal tissues

## COc1ccc2nc(-c3ccc([123I])cc3)cn2c1 [[^123I]-2-(4′-iodophenyl)-6-methoxyimidazo[1,2-a]pyridine]
[3]; after 2 min.
  Radioactive accumulation per unit weight in brain: 1.26 % ID/g
[3]; after 5 min.
  Radioactive accumulation per unit weight in brain: 0.89 % ID/g
[3]; after 30 min.
  Radioactive accumulation per unit weight in brain: 0.19 % ID/g
[3]; after 60 min.
  Radioactive accumulation per unit weight in brain: 0.09 % ID/g
[4]
  accumulation of radioactivity in amygdaloid nucleus on the side to which the amyloid suspension was injected: marked accumulation of radioactivity
[5]
  accumulation of radioactivity in amygdaloid nucleus on the side to which the physiological saline solution was injected: no significant accumulation of radioactivity
[6]; bone
  ratio (% ID/g at 5 minutes after the administration)/(% ID/g at 180 minutes after the administration), bone: 3
[6]; brain
  ratio (% ID/g at 5 minutes after the administration)/(% ID/g at 180 minutes after the administration), brain: 43
[6]; distribution moved from small intestine to large intestine
  excretion / clearance to the outside of the body: biliary-excreted rapidly after the administration
[6]; heart
  ratio (% ID/g at 5 minutes after the administration)/(% ID/g at 180 minutes after the administration), heart: 12
[6]; lung
  ratio (% ID/g at 5 minutes after the administration)/(% ID/g at 180 minutes after the administration), lung: 7
[6]; pancreas
  ratio (% ID/g at 5 minutes after the administration)/(% ID/g at 180 minutes after the administration), pancreas: 8
[6]; 5 min. after administration
  radioactive distribution per unit weight, Adrenal gland, Average: 5.163 % ID/g
  radioactive distribution per unit weight, Blood, Average: 0.290 % ID/g
  radioactive distribution per unit weight, Bone, Average: 0.223 % ID/g
  radioactive distribution per unit weight, Brain, Average: 1.175 % ID/g
  radioactive distribution per unit weight, Heart, Average: 0.752 % ID/g
  radioactive distribution per unit weight, Kidney, Average: 1.434 % ID/g
  radioactive distribution per unit weight, Large intestine, Average: 0.122 % ID/g
  radioactive distribution per unit weight, Liver, Average: 1.857 % ID/g
  radioactive distribution per unit weight, Lung, Average: 1.109 % ID/g
  radioactive distribution per unit weight, Marrow, Average: 0.937 % ID/g
  radioactive distribution per unit weight, Muscle, Average: 0.344 % ID/g
  radioactive distribution per unit weight, Pancreas, Average: 0.709 % ID/g
  radioactive distribution per unit weight, Small intestine, Average: 0.729 % ID/g
  radioactive distribution per unit weight, Spleen, Average: 0.460 % ID/g
  radioactive distribution per unit weight, Stomach, Average: 0.203 % ID/g
[6]; 30 min. after administration
  radioactive distribution per unit weight, Adrenal gland, Average: 2.364 % ID/g
  radioactive distribution per unit weight, Blood, Average: 0.240 % ID/g
  radioactive distribution per unit weight, Bone, Average: 0.136 % ID/g
  radioactive distribution per unit weight, Brain, Average: 0.220 % ID/g
  radioactive distribution per unit weight, Heart, Average: 0.220 % ID/g
  radioactive distribution per unit weight, Kidney, Average: 2.102 % ID/g
  radioactive distribution per unit weight, Large intestine, Average: 0.096 % ID/g
  radioactive distribution per unit weight, Liver, Average: 1.197 % ID/g
  radioactive distribution per unit weight, Lung, Average: 0.410 % ID/g
  radioactive distribution per unit weight, Marrow, Average: 0.285 % ID/g
  radioactive distribution per unit weight, Muscle, Average: 0.092 % ID/g
  radioactive distribution per unit weight, Pancreas, Average: 0.338 % ID/g
  radioactive distribution per unit weight, Small intestine, Average: 3.964 % ID/g
  radioactive distribution per unit weight, Spleen, Average: 0.207 % ID/g
  radioactive distribution per unit weight, Stomach, Average: 1.081 % ID/g
[6]; 60 min. after administration
  radioactive distribution per unit weight, Adrenal gland, Average: 1.775 % ID/g
  radioactive distribution per unit weight, Blood, Average: 0.203 % ID/g
  radioactive distribution per unit weight, Bone, Average: 0.102 % ID/g
  radioactive distribution per unit weight, Brain, Average: 0.111 % ID/g
  radioactive distribution per unit weight, Heart, Average: 0.134 % ID/g
  radioactive distribution per unit weight, Kidney, Average: 1.630 % ID/g
  radioactive distribution per unit weight, Large intestine, Average: 0.099 % ID/g
  radioactive distribution per unit weight, Liver, Average: 0.836 % ID/g
  radioactive distribution per unit weight, Lung, Average: 0.243 % ID/g
  radioactive distribution per unit weight, Marrow, Average: 0.000 % ID/g
  radioactive distribution per unit weight, Muscle, Average: 0.062 % ID/g
  radioactive distribution per unit weight, Pancreas, Average: 0.247 % ID/g
  radioactive distribution per unit weight, Small intestine, Average: 5.924 % ID/g
  radioactive distribution per unit weight, Spleen, Average: 0.154 % ID/g
  radioactive distribution per unit weight, Stomach, Average: 1.476 % ID/g
[6]; 180 min. after administration
  radioactive distribution per unit weight, Adrenal gland, Average: 0.754 % ID/g
  radioactive distribution per unit weight, Blood, Average: 0.139 % ID/g
  radioactive distribution per unit weight, Bone, Average: 0.070 % ID/g
  radioactive distribution per unit weight, Brain, Average: 0.027 % ID/g
  radioactive distribution per unit weight, Heart, Average: 0.061 % ID/g
  radioactive distribution per unit weight, Kidney, Average: 0.643 % ID/g
  radioactive distribution per unit weight, Large intestine, Average: 3.294 % ID/g
  radioactive distribution per unit weight, Liver, Average: 0.374 % ID/g
  radioactive distribution per unit weight, Lung, Average: 0.163 % ID/g
  radioactive distribution per unit weight, Marrow, Average: 0.000 % ID/g
  radioactive distribution per unit weight, Muscle, Average: 0.027 % ID/g
  radioactive distribution per unit weight, Pancreas, Average: 0.088 % ID/g
  radioactive distribution per unit weight, Small intestine, Average: 2.870 % ID/g
  radioactive distribution per unit weight, Spleen, Average: 0.084 % ID/g
  radioactive distribution per unit weight, Stomach, Average: 1.272 % ID/g
[7]
  logPoctanol value: 2.3
